Test results taken from ChEMBL document CHEMBL4266045, “Understanding Molecular Drivers of Melanin Binding To Support Rational Design of Small Molecule Ophthalmic Drugs” (J Med Chem, 2018).

Tests used:
[1] = test system: Sepia officinalis; assay: Binding affinity to Sepia officinalis melanin assessed as fraction unbound at 2 uM after 2 hrs by high-throughput screening assay
[2] = Lipophilicity, log D of compound; conditions: octanol/water

For `CCCCN1CCC(CCC(=O)c2cc(Cl)c(N)cc2OC)CC1`, the Fu [1] was 0.8% and the logD [2] was 1.91.

Work on `Cc1ccccc1Nc1ncnc2c1oc1ccccc12` yielded a Fu [1] of 34% and a logD [2] of 3.77.

For `CN(C)c1nc2ccc(Cl)cc2s1`, the Fu [1] was 0.2% and the logD [2] was 2.04.

`COc1cc(N)c(Cl)cc1C(=O)CCC1CCNCC1` showed a Fu [1] of 34% and a logD [2] of 0.01.

For `c1ccc2c(c1)oc1c(Nc3ccncc3)ncnc12`, the Fu [1] was 0.1% and the logD [2] was 2.98.

In the case of `Nc1nc2ccc(OC(F)(F)F)cc2s1`, the Fu [1] is reported as 48%.
